Laboratory results taken from US9334272B2, “Derivatives of purinic and pyrimidinic antiviral agents and use thereof as potent anticancer agents” (Ramot at Tel-Aviv University Ltd., priority 2007, dated 2016).

Test system: 4T1 murine breast carcinoma
Test: Metastatic 4T1 breast carcinoma model
Format: in vivo, mice
Settings: 25 mg/kg, 4T1 model, p<0.05
Experimental: The syngeneic murine breast carcinoma metastatic model was performed with 8-10 weeks old BALB-c mice implanted with 4T1 cells. When the tumor volume reached 75-180 mm^3 (after ˜10 days), treatment was initiated for an additional 21 days. At termination, the animals were sacrificed and their lungs removed, stained with Bouin's solution, and lung lesions were scored under an illuminated magnifying glass.

CCCC(CCC)C(=O)Nc1nc2c(ncn2COCCOC(=O)C(CCC)CCC)c(=O)[nH]1 [Compound 6, N-valproyl-9-(2-valproyloxy)ethoxymethylguanine]
lung weight: reduction in lung weight | number of observed lung lesions: reduction in the number of observed lung lesions
